PubChem BioAssay (NCI)
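Interpolation was linear, between the two tested concentrations surrounding the appropriate level; five concentrations were tested over 48 hours in 96-well plates. The concentration for full growth arrest is given as TGI.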

What was measured:
Assay in all cases: NCI-60 cell line screen, 48 h
A498 renal = test system: A498 renal
BT-549 breast = test system: BT-549 breast
DU-145 prostate = test system: DU-145 prostate
HT29 colon = test system: HT29 colon
LOX IMVI melanoma = test system: LOX IMVI melanoma
NCI/ADR-RES ovarian = test system: NCI/ADR-RES ovarian
PC-3 prostate = test system: PC-3 prostate
SK-MEL-28 melanoma = test system: SK-MEL-28 melanoma
T-47D breast = test system: T-47D breast
U251 CNS = test system: U251 CNS

SMILES | TGI (A498 renal) | TGI (BT-549 breast) | TGI (DU-145 prostate) | TGI (HT29 colon) | TGI (LOX IMVI melanoma) | TGI (NCI/ADR-RES ovarian) | TGI (PC-3 prostate) | TGI (SK-MEL-28 melanoma) | TGI (T-47D breast) | TGI (U251 CNS)
CCOP(=O)(OCC)C(F)(F)CC1CCCCC1 | > 10 µM | > 10 µM | > 10 µM | > 10 µM | > 10 µM | > 10 µM | > 10 µM | > 10 µM | > 10 µM | > 10 µM
CN1C(=O)[C@@]2(C=CC3(CC2)OCCO3)c2ccccc21 | > 50 µM | > 50 µM | > 50 µM | > 50 µM | > 50 µM | > 50 µM | > 50 µM | > 50 µM | > 50 µM | > 50 µM
Cc1ccc(Nc2nnc3n2S(=O)(=O)c2cc(C)c(Cl)cc2S3)cc1 | 89.2 µM | 31.3 µM | > 100 µM | 38.5 µM | 65.2 µM | 43.5 µM | 27.3 µM | > 100 µM | > 100 µM | 59.2 µM
C=CCOn1c(C=C)nc2c(C)cccc21 | 17.9 µM | 19.1 µM | – | 11.6 µM | 12.2 µM | – | 12.1 µM | 25.7 µM | 7.25 µM | 4.84 µM
Clc1ncc(C(Cl)(Cl)Cl)nc1-c1ccccc1 | – | 8.81 µM | 2.96 µM | 3.65 µM | 15.4 µM | 57.7 µM | 3.38 µM | 60.6 µM | 4.1 µM | 3.3 µM
Cc1cnc2[nH]c(-c3ccccc3)cc(=O)c2c1 | – | > 100 µM | > 100 µM | 0.0732 µM | > 100 µM | 0.0447 µM | > 57.3 µM | > 100 µM | > 100 µM | > 22.1 µM
CCC1(O)CN(CCOC)[C@H]2C[C@@H]1C(=O)c1[nH]c3ccccc3c12 (stereo not given in full) | > 100 µM | > 100 µM | > 100 µM | > 100 µM | > 100 µM | > 100 µM | > 100 µM | > 100 µM | – | > 100 µM
COc1cc([C@@H]2c3cc4c(cc3[C@@H](Nc3ccc(Cl)cc3C(=O)c3ccccc3Cl)[C@H]3COC(=O)[C@H]23)OCO4)cc(OC)c1OC | – | > 100 µM | > 100 µM | > 100 µM | > 100 µM | > 37.7 µM | – | 34 µM | > 100 µM | 0.364 µM
COc1ccc(-c2c(C(C)=O)c(C)n(C3OC(CO)C(O)C(O)C3O)c(=S)c2C#N)cc1 (stereo not given) | – | > 100 µM | > 100 µM | > 100 µM | > 100 µM | > 100 µM | > 100 µM | > 100 µM | > 100 µM | > 100 µM
CC(=O)Oc1ccc2c(c1)c1c(OC(C)=O)c3ccccc3c(OC(C)=O)c1n2Cc1cccc(C)c1 | 70.6 µM | > 100 µM | > 100 µM | > 100 µM | – | > 100 µM | > 100 µM | > 100 µM | > 100 µM | > 100 µM
c1ccc(C/C(=N\Nc2nc3ccccc3o2)c2ccccn2)cc1 | 1.69 µM | 5.73 µM | 8.38 µM | 4.56 µM | 2.27 µM | 0.0824 µM | 5.68 µM | – | > 33.5 µM | 5.32 µM
